How the values were obtained:
PLK4 (h) = target: T1, PLK4 (h) (Homo sapiens, UniProt O00444); assay: PLK-4 human kinase scintillation proximity assay (SPA); format: biochemical; conditions: 1 μM ATP, 60 minutes at r.t., read-out: PLK4 pIC50 (converted)
T1 sequence (O00444 1-970): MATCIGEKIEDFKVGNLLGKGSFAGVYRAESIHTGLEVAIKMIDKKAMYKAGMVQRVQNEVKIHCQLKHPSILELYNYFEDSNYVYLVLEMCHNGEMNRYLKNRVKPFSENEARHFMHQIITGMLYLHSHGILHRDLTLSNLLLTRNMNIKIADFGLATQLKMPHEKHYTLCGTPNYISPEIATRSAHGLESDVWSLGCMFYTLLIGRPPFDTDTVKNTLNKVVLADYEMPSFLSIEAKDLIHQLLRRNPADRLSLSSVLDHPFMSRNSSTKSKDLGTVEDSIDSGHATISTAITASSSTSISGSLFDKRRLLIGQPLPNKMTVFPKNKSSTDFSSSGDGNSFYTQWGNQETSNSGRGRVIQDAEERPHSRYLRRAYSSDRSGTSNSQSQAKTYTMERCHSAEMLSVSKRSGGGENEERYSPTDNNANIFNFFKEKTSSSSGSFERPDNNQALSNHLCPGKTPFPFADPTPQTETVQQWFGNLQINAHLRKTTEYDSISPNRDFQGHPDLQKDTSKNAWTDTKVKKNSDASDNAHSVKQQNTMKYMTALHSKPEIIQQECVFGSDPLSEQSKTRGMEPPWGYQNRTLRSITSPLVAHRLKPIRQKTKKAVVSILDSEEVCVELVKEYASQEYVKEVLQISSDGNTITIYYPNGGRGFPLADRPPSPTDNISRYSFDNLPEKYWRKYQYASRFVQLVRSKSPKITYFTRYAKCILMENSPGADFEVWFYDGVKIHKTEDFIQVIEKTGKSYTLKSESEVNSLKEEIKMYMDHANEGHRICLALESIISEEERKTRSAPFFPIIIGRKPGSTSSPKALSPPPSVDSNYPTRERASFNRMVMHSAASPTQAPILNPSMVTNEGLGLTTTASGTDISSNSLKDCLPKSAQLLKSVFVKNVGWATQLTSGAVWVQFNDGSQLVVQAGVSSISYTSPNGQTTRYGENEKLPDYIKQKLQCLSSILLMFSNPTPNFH
Protocol: The in vitro inhibition of a panel of kinases was assessed using either the scintillation proximity assay (SPA) as described by Cook, N. D. et al., Advances in Experimental Medicine and Biology (1991), 36; p. 525-528.
In the SPA technology the activity of the kinase of interest is measured using an appropriate biotinylated substrate that is incubated with the aforementioned kinase protein in the presence of (^33P) radiolabeled ATP. (^33P) Phosphorylation of the substrate is subsequently measured through binding of the phosphorylated substrate to streptavidine coated beads that are based on the scintillant poly(vinyl toluene) (PVT-Beads). The scintillation intensity is detected by imaging on Leadseeker.
All kinases are pre-diluted to a 10× working concentration prior to addition into the assay. The composition of the dilution buffer for each kinase is detailed below.
In a final reaction volume of 30 μl, PLK4 (h) (19 μg/ml) is incubated with 50 mM Hepes pH 8.0, 10 mM MgCl2, 50 mM NaCl, 1 mM NaF, 1 mM DTT, 10 μM of peptide Biotin-RPRGQRDSSYYWE-OH, 1 μM ATP and 2 nM [γ-^33P-ATP] (6.0 μCi/ml). After incubation of 60 minutes at r.t., the reaction is stopped by addition of 40 μL of stop solution containing 8.7 mM EDTA, BSA 0.17%, 0.17% Triton X-100, 1.7 mg/ml SPA beads (GE-healthcare). The plate is centrifuged and read for Scintillation imaging on Leadseeker.

HCT-116 = assay: Cellular proliferation assay (Alamar blue), HCT-116; format: cell-based; conditions: Homo sapiens; HCT-116 cells; 10% FCS; 72 h with compound; Alamar blue 4 h; read-out: pIC50 HCT-116 (converted)
Protocol: (§1) Cellular proliferation of these compounds was tested on a panel of different cell lines in the presence of 10% FCS serum (37° C. and 5% (v/v) CO2). In a first step these cells were seeded and incubated for 24 hours in the absence of compound. In the second step the cells were incubated for 72 hours with the compounds to be tested for 72 hours. The viable cell number was finally assessed in a standard Alamar blue cell viability assay.
(§2) The viable cell number was assessed by incubation for either 4 h (HCT-116, H1299) 6 h (U87-MG) or 24 h (A2780, PC3, MDA-MB-231) with Alamar blue (Resazurin 9 μg/ml, K-Ferrocyanide 90 μM, K-Ferricyanide 90 μM) and the converted fluorescent product was quantified on a fluorescent plate readed (544 nm/590 nm). Effect of the compounds is calculated as of on control cells.

H1299 = assay: Cellular proliferation assay (Alamar blue), H1299; format: cell-based; conditions: Homo sapiens, NCI-H1299, H1299 cells; 10% FCS; 72 h with compound; Alamar blue 4 h; read-out: pIC50 H1299 (converted)
Protocol: as §1, §2

U87-MG = assay: Cellular proliferation assay (Alamar blue), U87-MG; format: cell-based; conditions: Homo sapiens, U-87 MG; U87-MG cells; 10% FCS; 72 h with compound; Alamar blue 6 h; read-out: pIC50 U87MG (converted)
Protocol: as §1, §2

A2780 = assay: Cellular proliferation assay (Alamar blue), A2780; format: cell-based; conditions: Homo sapiens, A2780, A2780 cells; 10% FCS; 72 h with compound; Alamar blue 24 h; read-out: pIC50 A2780 (converted)
Protocol: as §1, §2

PC3 = assay: Cellular proliferation assay (Alamar blue), PC3; format: cell-based; conditions: Homo sapiens, PC-3, PC-3 cells; 10% FCS; 72 h with compound; Alamar blue 24 h; read-out: pIC50 PC-3 (converted)
Protocol: as §1, §2

MDA-MB-231 = assay: Cellular proliferation assay (Alamar blue), MDA-MB-231; format: cell-based; conditions: Homo sapiens, MDA-MB-231, MDA-MB-231 cells; 10% FCS; 72 h with compound; Alamar blue 24 h; read-out: pIC50 MDA/MB231 (converted)
Protocol: as §1, §2

| SMILES | IC50 (PLK4 (h)) | IC50 (HCT-116) | IC50 (H1299) | IC50 (U87-MG) | IC50 (A2780) | IC50 (PC3) | IC50 (MDA-MB-231) |
| --- | --- | --- | --- | --- | --- | --- | --- |
| COc1cc(NC(=O)COc2ccc3cc2OCC(=O)N(C)CCCN(C)Cc2c[nH]c4ncnc(c24)N3)cc(OC)c1OC [Compound 71] | 0.0794 µM | 2 µM | 3.98 µM | 2.51 µM | 1 µM | 6.31 µM | 5.01 µM |
| CN1CCCN(C)C(=O)CCCOc2cc(ccc2N2CCOCC2)Nc2ncnc3[nH]cc(c23)C1 [Compound 44] | 1.58 µM | > 10 µM | > 10 µM | > 10 µM | > 10 µM | > 10 µM | > 10 µM |
| COc1ccc2cc1OCCCCC(=O)N1CCN(CC1)Cc1c[nH]c3ncnc(c13)N2 [Compound 103] | 0.631 µM | > 10 µM | > 10 µM | > 10 µM | > 10 µM | > 10 µM | > 10 µM |
| COc1ccc2cc1OCC(=O)N(C)CCCN(Cc1ccncc1)Cc1c[nH]c3ncnc(c13)N2 [Compound 62] | 0.631 µM | > 10 µM | > 10 µM | > 10 µM | > 10 µM | > 10 µM | > 10 µM |
| CN1CCN(C)C(=O)CCc2cc(ccc2N2CCOCC2)Nc2ncnc3[nH]cc(c23)C1 [Compound 45] | 3.16 µM | > 10 µM | > 10 µM | > 10 µM | > 10 µM | > 10 µM | > 10 µM |
| O=C1CCCCOc2cc(cc(C(F)(F)F)c2)Nc2ncnc3[nH]cc(c23)CN2CCN1CC2 [Compound 113] | > 10 µM | > 10 µM | > 10 µM | > 10 µM | > 10 µM | > 10 µM | > 10 µM |
| COc1ccc2cc1OCC(=O)N(C)CCN(C)CCCc1c[nH]c3ncnc(c13)N2 [Compound 60] | 1 µM | > 10 µM | > 10 µM | > 10 µM | > 10 µM | > 10 µM | > 10 µM |
| CN1CCCN(C)C(=O)COc2cc(ccc2OCCN2CCCCC2)Nc2ncnc3[nH]cc(c23)C1 [Compound 136] | 0.251 µM | 2.51 µM | 5.01 µM | 1.58 µM | 1 µM | 2.51 µM | 3.16 µM |
| CN1CCCN(C)C(=O)CCCCCOc2cc(ccc2Cl)Nc2ncnc3[nH]cc(c23)C1 [Compound 19] | 0.316 µM | > 10 µM | > 10 µM | > 10 µM | > 10 µM | > 10 µM | > 10 µM |
| CN1CCCN(C)C(=O)COc2cc(ccc2OCCOc2ccc(Cl)cc2)Nc2ncnc3[nH]cc(c23)C1 [Compound 134] | 0.0794 µM | 0.126 µM | 0.398 µM | 3.16 µM | 0.0398 µM | 6.31 µM | 5.01 µM |
| CN1CCCN(C)C(=O)COc2cc(ccc2NC(=O)NC2CCCC2)Nc2ncnc3[nH]cc(c23)C1 [Compound 66] | 0.0398 µM | 5.01 µM | > 10 µM | 1.58 µM | > 10 µM | 7.94 µM | > 10 µM |
| COc1cc2cc(c1OC)CCC(=O)N(C)CCN(C)Cc1c[nH]c3ncnc(c13)N2 [Compound 47] | 6.31 µM | > 10 µM | > 10 µM | > 10 µM | > 10 µM | > 10 µM | > 10 µM |
| COCCOCCOc1ccc2cc1OCC(=O)N(C)CCCN(C)Cc1c[nH]c3ncnc(c13)N2 [Compound 128] | 0.0251 µM | 0.501 µM | 1 µM | 2.51 µM | 0.398 µM | 6.31 µM | 5.01 µM |
| COCCCOc1ccc2cc1OCC(=O)N(C)CCCN(C)Cc1c[nH]c3ncnc(c13)N2 [Compound 132] | 0.0794 µM | 1.58 µM | 3.98 µM | 2 µM | 1.26 µM | 3.98 µM | 3.98 µM |
| COc1cc2cc(c1OC)CN(C)CC(=O)N(C)CCCc1c[nH]c3ncnc(c13)N2 [Compound 72] | > 10 µM | > 10 µM | > 10 µM | > 10 µM | > 10 µM | > 10 µM | > 10 µM |
| COc1ccc2cc1OCC(=O)N(C)CCCN(CC1CC1)Cc1c[nH]c3ncnc(c13)N2 [Compound 59] | 0.158 µM | > 10 µM | > 10 µM | > 10 µM | > 10 µM | > 10 µM | > 10 µM |
| COc1ccc2cc1OCC(=O)N(C(C)C)CCCN(C)Cc1c[nH]c3ncnc(c13)N2 [Compound 12] | 0.0794 µM | 7.94 µM | > 10 µM | 6.31 µM | 5.01 µM | > 10 µM | > 10 µM |
| COc1ccc2cc1OCCNC(=O)CN(C)Cc1c[nH]c3ncnc(c13)N2 [Compound 22] | 1.26 µM | 2 µM | 3.16 µM | 2.51 µM | 2 µM | 6.31 µM | 10 µM |
| COc1ccc2cc1CN(C)CC(=O)N(C)CCCc1c[nH]c3ncnc(c13)N2 [Compound 34] | > 10 µM | > 10 µM | > 10 µM | > 10 µM | > 10 µM | > 10 µM | > 10 µM |
| COc1ccc2cc1OCC(=O)NCN(C)CCCc1c[nH]c3ncnc(c13)N2 [Compound 33] | 5.01 µM | > 10 µM | > 10 µM | > 10 µM | > 10 µM | > 10 µM | > 10 µM |
| CN1CCCN(C)C(=O)COc2cc(ccc2NC(=O)NCC2CC2)Nc2ncnc3[nH]cc(c23)C1 [Compound 127] | 0.0501 µM | > 10 µM | > 10 µM | > 10 µM | 5.01 µM | > 10 µM | > 10 µM |
| COc1cc2cc(c1OC)OCCCCC(=O)N1CCN(CC1)Cc1c[nH]c3ncnc(c13)N2 [Compound 111] | > 10 µM | > 10 µM | > 10 µM | > 10 µM | > 10 µM | > 10 µM | > 10 µM |

From US8318731B2, “Pyrrolopyrimidines” (Janssen Pharmaceutica NV, priority 2007, dated 2012)
